As usually defined, the kinetic solubility is the concentration staying in solution when a stock, usually in DMSO, is diluted into the medium.

Converted amounts (≈) assume the structure as drawn.

The conditions of the data set: buffer; pH 7.4; 200.0 µM.
`COc1cccc2c(=O)n(CC(=O)NCCc3ccccc3)ccc12` displayed a kinetic solubility of 1.6 µg/mL (≈ 4.76 µM). For `COc1cc(C(=O)NCCSc2ccccc2)cc(OC)c1OC`, the kinetic solubility is 49.9 µg/mL (≈ 144 µM). `COC(=O)C1=C(C)NC(=O)NC1c1ccccc1Cl` (stereo unspecified) showed a solubility (kinetic) of 18.5 µg/mL (≈ 65.9 µM).

For `O=C1c2ccccc2C(=O)N1c1cccc2ccccc12`, the kinetic solubility was 13.7 µg/mL (≈ 50.1 µM). For `CC(C)N(Cc1ccccc1)C(=O)c1cccs1`, the solubility (kinetic) is over 38.9 µg/mL. In turn, `COc1ccccc1NC(=O)C(C)OC(=O)CC1CCCC1` (stereo unspecified) had a kinetic solubility of 29.4 µg/mL (≈ 96.3 µM).

Compound `CN(C(=O)COC(=O)c1cc[n+]([O-])cc1)c1ccccc1` yielded a solubility (kinetic) of over 42.9 µg/mL.

`N#Cc1cc([N+](=O)[O-])ccc1NC(=O)CSc1n[nH]c(=O)[nH]c1=O` yielded a kinetic solubility of over 52.2 µg/mL. As to `S=c1nc(COc2ccccc2)[nH]c2ccccc12`, the solubility (kinetic) is 8 µg/mL (≈ 29.8 µM).

Regarding `Cc1cc(C)nc(N2CCN(c3ccc(F)cc3)CC2)n1`, the solubility (kinetic) turned out to be 2.1 µg/mL (≈ 7.33 µM).

For the compound `Cc1ccc2nc(-c3ccccc3)c(-c3ccccc3)nc2c1`, the kinetic solubility was under 0.3 µg/mL.

In turn, `O=C(Cc1c(F)cccc1Cl)OCC(=O)c1ccc[nH]1` showed a solubility (kinetic) of 26.1 µg/mL (≈ 88.3 µM).

As to `CCCCNC(=O)COC(=O)c1ccc(N(C)C)cc1`, the kinetic solubility is over 41.8 µg/mL. Next, `COc1ccc(CCNC(=O)C2CCN(C(=O)c3ccccc3)CC2)cc1`: 49.2 µg/mL (≈ 134 µM); `N#C/C(=C\c1cccc(O)c1)C(=O)N1CCCCC1`: over 38.4 µg/mL. Consider `CSc1nc(N2CCOCC2)c2sccc2n1`, for which the solubility (kinetic) stood at 38.6 µg/mL (≈ 144 µM). `CCN(C(=O)/C=C/c1ccccc1)C1CCCCC1` gave a solubility (kinetic) of over 38.6 µg/mL. On to `O=c1c2oc3ccccc3c2ncn1Cc1cccc(Cl)c1`, for which the solubility (kinetic) is under 0.3 µg/mL. Next, `CCc1cccc(CC)c1NC(=O)CN1CCc2cc(OC)c(OC)cc2C1`: 38.8 µg/mL (≈ 101 µM); `Cc1ccc(OCCN2C(=O)C(=O)c3cccc(C)c32)cc1`: under 0.6 µg/mL; `CC(=O)Nc1ccc(-c2csc(Nc3cc(C)ccn3)n2)cc1`: 0.4 µg/mL (≈ 1.23 µM).

Consider `Cc1ccc(N2CC(C(=O)Nc3cccnc3)CC2=O)cc1Cl` (stereo unspecified), for which the kinetic solubility stood at 45.8 µg/mL (≈ 139 µM). The compound `COc1ccc(-n2c(=S)[nH]c3sc4c(c3c2=O)CCN(C)C4)cc1` came in with a kinetic solubility of over 53.9 µg/mL. The compound `Br.CN(/N=C/c1ccncc1)C1=NCCN1` registered a solubility (kinetic) of over 42.6 µg/mL. To `CC(=O)c1sc(-c2ccccc2)cc1N` belongs 28.4 µg/mL (≈ 131 µM). As for `O=C(OCC(=O)N1CCOCC1)c1ccccc1OCc1ccc(Cl)cc1`, the solubility (kinetic) was over 58.5 µg/mL. Next, `CC(=NCCCn1ccnc1)c1c(O)n(-c2ccccc2)c(=O)[nH]c1=O`: over 53 µg/mL.

The compound `O=Cc1ccccc1OCCN1CCCC1=O` yielded a kinetic solubility of 33.8 µg/mL (≈ 145 µM).

In turn, `COc1ccc(CCNC(=O)c2noc(C(C)C)c2[N+](=O)[O-])cc1OC` registered a kinetic solubility of over 54.5 µg/mL. Compound `COc1ccc(CCNC(=O)Oc2ccccc2)cc1OC` had a solubility (kinetic) of 42.9 µg/mL (≈ 142 µM). To `O=C(O)c1ccccn1` belongs over 18.5 µg/mL. With `COC(=O)Nc1cc(C(=O)c2ccc(Cl)cc2Cl)c[nH]1`, the solubility (kinetic) is 43.6 µg/mL (≈ 139 µM).

Consider `CC12CN3CC(C)(CN(C1)C3c1ccc(Cl)cc1)C2` (stereo unspecified), for which the solubility (kinetic) came out at 30.9 µg/mL (≈ 112 µM). Next, `Cc1ccnc(NS(=O)(=O)c2ccc(Cl)nc2)c1`: 26.9 µg/mL (≈ 94.8 µM); `COc1ccc(NC(=O)c2ccc3nc[nH]c3c2)c(OC)c1`: 42.9 µg/mL (≈ 144 µM).

In the case of `COCCNc1nc(N)c([N+](=O)[O-])c(Nc2ccc(F)cc2)n1`, the solubility (kinetic) was determined as 0.9 µg/mL (≈ 2.79 µM). To `N#Cc1c(N2CCCC2)ccc(Br)c1Cl` belongs under 0.3 µg/mL. Next, `O=C(Nc1ccccc1Br)c1cc[n+]([O-])cc1`: over 44 µg/mL. `COc1ccc(CNC(=O)C2CCC(=O)N2C(C)C)c(OC)c1` (stereo unspecified): the kinetic solubility is over 48.1 µg/mL.

Regarding `CCCNC(=O)C(=O)Nc1cc2c3c(c1)CCC(=O)N3CCC2`, the solubility (kinetic) was over 47.3 µg/mL.

In the case of `COc1ccc(-c2csc(NC(=O)Cc3ccccc3)n2)cc1OC`, the kinetic solubility stood at 0.7 µg/mL (≈ 1.97 µM). To `O=C(Nc1ccc(F)c(F)c1)C1=COCCO1` belongs 35.6 µg/mL (≈ 148 µM). To `Cc1cccc(NC(=O)Cc2ccc(-c3ccccc3)cc2)n1` belongs 3.6 µg/mL (≈ 11.9 µM); to `COc1ccc(-c2ccc(S(=O)(=O)N3CCCC3)cc2)cc1`, 1.1 µg/mL (≈ 3.47 µM); to `O=C(CCC(=O)Nc1ccccc1)N/N=C/c1ccncc1`, over 44.4 µg/mL.

In turn, `O=C(Nc1ccncc1Cl)c1ccncc1` showed a kinetic solubility of over 35 µg/mL. Next, `CC(C)N1CCN(Cc2c[nH]c3ccccc23)CC1CCO` (stereo unspecified): 32.8 µg/mL (≈ 109 µM); `C[n+]1cccc(C(=O)Nc2ccccc2)c1.[Cl-]`: 30 µg/mL. To `O=C(c1ccc([N+](=O)[O-])o1)N1CCc2ccccc21` belongs 2.6 µg/mL (≈ 10.1 µM); to `O=S(=O)(CCN1CCSCC1)c1ccc(Cl)cc1`, 41.3 µg/mL (≈ 135 µM); to `Cc1ccc(S(=O)(=O)N(C)C)cc1NC(=O)c1cc(-c2ccncc2)nc2ccccc12`, 10 µg/mL (≈ 22.4 µM).

The values above are taken from PubChem BioAssay AID1996.
